Values of other authors, collected in patent publication US8211842B2, “Preventive and/or curative agent for cleaning materials that are brought into contact with water” (priority 2006, dated 2012).

What was measured:
Settings in all cases: standard AFNOR NF T 72-151
[1] = system: Escherichia coli 54127
[2] = system: Staphylococcus aureus 53164
[3] = system: Streptococcus faecalis 5855
[4] = system: Mycobactenum smegmatis 7326
[5] = system: Pseudomonas aeruginosa A22

Measured: dose effective as a bactericide

CCCCCCCCCC[N+](C)(C)CCCCCCCCCC.[Cl-] [didecyl dimethylammonium chloride]
50 ppm: all assays above
